In patent US20090269795A1, “Mutant alpha4betadelta GABAA receptor and methods of treating anxiety or irritability” (priority 2007, published 2009):

What was measured:
α5β2/3γ2 receptors = assay: Whole cell patch clamp of GABA-gated current, recombinant receptors in HEK-293 cells; assay type: cell-based, rat; settings: 30 nM THP
Description: Recombinant receptors: Transfection—Plasmids obtained from S. Vicini (rat α1, α5, β2, β3 and γ2), P. Whiting (human α4 and δ) and N. L. Harrison (mouse α4) were propagated in E coli DH5α and prepared using Qiagen Maxi- or Midi-prep kits. (Rat, mouse and human α1, β2, β3 and γ2 subunits are identical or nearly identical.) All receptors were transfected at a 1:1:1 ratio, except α1β2γ2 (1:1:5)^12, α4βδ (5:1:5)^13 and α4β2γ2 (5:1:1). HEK-293 cells were maintained in medium (DMEM:Ham's F-12 1:1) supplemented with 10% fetal calf serum at 37° C. in a humid 5% CO2 atmosphere.
The pipet solution contained (in mM): N-methyl-D-glucamine chloride 120, Cs4BAPTA 5 (Calbiochem), Mg-ATP 5, and an ATP regeneration system (20 mM Tris phosphocreatine and creatine kinase). Internal [Cl^−] or the holding potential were varied, using gluconate as the anion, to alter the direction of Cl^− flow, corrected for the junction potential.
HEK-293 cells were maintained in medium (DMEM:Ham's F-12 1:1) supplemented with 10% fetal calf serum at 37° C. in a humid 5% CO2 atmosphere.

[1] = system: CA1 hippocampal pyramidal cells; assay: Tonic GABAergic current, whole cell patch clamp, hippocampal slice; assay type: cell-based, mouse
Method: In whole cell recordings of the tonic current, the bath contained 2 mM kynurenic acid and 5-10 mM TEA to pharmacologically isolate the GABAergic current, and in some cases, 200 nM gabazine (6-imino-3-(4-methyoxyphenyl)-1 (6H)-pyridazinebutanoic acid hydrobromide) to selectively block the synaptic GABAergic currents^22. […] In some cases, 50 μM L-655,708 was added to the bath solution to block α5-containing GABAA receptors^23.
(§1) Tonic current was recorded as the difference current produced by 120 μM gabazine, which blocks all GABAA receptor, before and after 30 nM THP^24. Current was also recorded in response to 2 s 10 mV steps in the holding potential, and current-voltage curves generated to the steady-state current. Because fast-inactivating conductances would not be excluded in a voltage ramp, stable steady-state current responses were used instead to construct the current-voltage (IV) curves. Input resistance (Rm) was calculated from the current response to voltage steps from −60 to −40 mV using Ohm's Law. The reversal potential was determined by the […] of the IV curve (−90 to −10 mV). The gabazine-sensitive slope conductance was assessed as the slope of the linear portion of outward current plot recorded before and after THP after subtraction of the gabazine-generated current (in the presence of L-655,708 to block α5-GABAA receptors). Only data with a stable baseline and pipet access resistance <10 MΩ were included in the analysis.

[2] = system: α4 and δ GABAA receptor subunits; assay: Western blot of hippocampal α4 and δ subunit expression; assay type: in vivo, mouse; settings: replacement THP 10 mg kg−1 day−1 for 3 days
Description: Animal subjects. Prepubertal and pubertal female C57BL6 mice (3½-6 weeks old, +/+ and δ^−/−1) were housed in a reverse light:dark cycle (12:12). Both sets of mice were originally supplied by G. Homanics (Univ. of Pittsburgh), and were bred on site, with +/+ mice supplemented from Jackson Laboratories (Bar Harbor, Me.). Initially, age-matched+/+littermates of the δ^−/−were used as controls, but because they were indistinguishable from C57BL6, data from both groups were pooled. Genotyping of the tails verified that mice were homozygous δ^−/−. […] The onset of puberty was determined by vaginal opening, and pubertal mice tested on the day of first metestrus, identified by vaginal morphology and verification of first estrus the previous day. […] Individual stages of puberty were not distinguished, and pre-pubertal mice were used before any visible signs of pubertal development, assessed by development of the peri-vaginal area. […]
Western blot: Procedures were performed on hippocampal membranes at protein concentrations in the linear range (5-10 μg), as we have described^7. Following preparation of crude hippocampal membranes, individual protein concentrations were assessed using the Bradford assay. […] (The δ antibody was a generous gift from W. Sieghart.) Optical densities were quantified with One-Dscan software from a scanned image. […]

[3] = system: CA1 hippocampal pyramidal cells; assay: Input resistance and neuronal excitability (spiking), hippocampal slice; assay type: cell-based, mouse
Method: as §1
Effects of THP on cell excitability were tested by monitoring spiking using cell attached patch recordings^31 in voltage clamp mode (−40 mV holding potential, 150 mM NaCl intrapipet solution) or assessing the current threshold to spiking and spike frequency in current clamp mode (0.01-0.3 nA steps, starting from −1 nA, 1 s duration). (More complete details are supplied in the Supplementary Methods.)

[4] = puberty, whole cell current clamp

For `CC(=O)[C@H]1CC[C@H]2[C@@H]3CC[C@H]4C[C@H](O)CC[C@]4(C)[C@H]3CC[C@]12C` [THP, 3α-OH-5α[β]-pregnan-20-one], the “effect on outward current” value (α5β2/3γ2 receptors) was “either increased or had no effect”, the “reduction of outward tonic current” value ([1]; 30 nM THP, pubertal mice, low internal Cl−) was 48±6% and the “effect on outward tonic current” value ([1]; before puberty) was “increased the outward tonic current”. The “effect on tonic GABAergic current, inward” value ([1]; pubertal, cell loaded with Cl− to produce inward current) was “increased the tonic GABAergic current”, the “effect on outward tonic current” value ([1]; δ−/− mouse after puberty) was “increased the outward tonic current” and the “effect on increased expression of α4 and δ subunits at onset of puberty” value [2] was “prevented”. The “increase of input resistance” value ([3]; 30 nM THP, puberty, 10 mV steps −60 to −40) was 38±5%, the “effect on input resistance” value ([3]; before puberty) was “decreased input resistance” and the “effect on neuronal excitability” value ([3]; before puberty) was “decreased neuronal excitability”. For the same compound, the “effect on spiking, cell-attached” value ([3]; puberty) was “increased spiking”, the “effect on action potential frequency” value [3, 4] was “increased action potential frequency” and the “effect on current threshold for spiking (I threshold)” value [3, 4] was “reduced the amount of current necessary for triggering a spike”. For the same compound, the “THP-induced increase of input resistance” value ([3]; slices from δ−/− mice) was “not seen” and the “excitatory effect on neuronal firing” value ([3]; slices from δ−/− mice) was “not observed”.
